Where two headings read alike, the source gives them in different places.
Tests used:
[1] = tested on: pgp+ human colon tumor xenograft, DLD-1; settings: for Days to 600 mm^3 Median / Growth Delay / Toxicity: number of animals who either died or lost greater than 20% body weight: SCID mice; for Days to 600 mm^3 Median / Growth Delay / Toxicity: number of animals who either died or lost greater than 20% body weight / Tumor free mice/Group: DLD-1; for Tumor free mice/Group: tumors less than 600 mm^3 on day 201
Method: (§1) Female severe combined immune deficient, (SCID) mice aged six to eight weeks were obtained from either the in-house breeding facility at Roswell Park Cancer Institute or Taconic (Germantown, N.Y.). All aspects of animal care complied with the Institutional Animal Care and Use Committee guidelines. […] Tumors were initiated by implantation of approximately 50 mg of non-necrotic tumor fragments on the right flank using a 12-guage trocar needle. Chemotherapy was started when the tumor was established as a palpable mass, (approximately 50-100 mm^3 size). Therapy consisted of i.v. injections through the tail vein, given four times, three days apart. Each drug treatment group or drug free vehicle consisted of 4-5 mice per group, untreated controls contained 10 mice per group.
(§2) These were used for comparison purposes. DHA-taxoids and other omega-3 fatty acid-taxoids were prepared as a 30 mg/mL stock solution in equal parts of Tween 80 (polyoxyethylene-sorbitan monooleate; purchased from Sigma Chemical Company) and absolute ethanol. To stablize the formulation of the DHA-taxoids and other omega-3 fatty acid-taxoids, antioxidants, L-ascorbic acid (3.9 mM) and α-tocopherol (2.0 mM), were added. Each stock solution was further diluted before use in 0.9% NaCl (saline) so that the appropriate concentration of each drug could be injected i.v. via the tail vein, in a volume of approximately 0.4 mL for a 20 g mouse. Each drug was administered once a day on […].
(§3) For each animal, the tumor length (1) and width (w), each in mm, were measured using electronic calipers and recorded every 3-4 days. Tumor volume (v), in mm^3, was calculated using the formula: v=0.4(l×w^2). The time in days to the pre-determined target tumor volume of 600 mm^3 was linearly interpolated from a plot of log(volume) versus time. Statistically significant differences in tumor volumes between control and drug-treated mice were determined by the Cox-Mantel test. […] All statistical tests were two-sided.

[2] = tested on: human ovarian tumor xenograft (pgp−) A121; assay: In vivo tumor growth assay, A121 xenograft in SCID mice; settings: for Tumor free mice/Group: no palpable tumor on day 197; for Tumor free mice/Group / Days to 600 mm^3 Median / Growth Delay / Toxicity: number of animals who either died or lost greater than 20% body weight: A121; for Days to 600 mm^3 Median / Growth Delay / Toxicity: number of animals who either died or lost greater than 20% body weight: SCID mice; for antitumor effect (in words): human ovarian tumor xenograft (pgp−) A121, SCID mice
Method: as §1, §2, §3

[3] = tested on: Madison 109 subcutaneous lung tumor; settings: cited from earlier work
[4] = cited from earlier work
[5] = tested on: human colon carcinoma SW-620 xenografts; settings: SW-620 xenografts in mice; cited from earlier work
[6] = tested on: human breast cancer cell line MCF7-MDR; settings: drug-resistant, MDR phenotype; cited from earlier work
[7] = total dose 75 mg/kg (25 mg/kg/inj) i.v. day 5, 8 and 11
[8] = total dose 75 mg/kg (25 mg/kg/inj) i.v.
[9] = total dose 150 mg/kg (50 mg/kg/inj) i.v. day 5, 8 and 11
[10] = total dose 150 mg/kg (50 mg/kg/inj) i.v.
[11] = total dose 240 mg/kg (80 mg/kg/inj) i.v. day 5, 8 and 11
[12] = total dose 240 mg/kg (80 mg/kg/inj) i.v.
[13] = total dose 90 mg/kg (30 mg/kg/inj) i.v.
[14] = total dose 60 mg/kg (20 mg/kg/inj) i.v.

Compound	Days to 600 mm^3 Median [1, 7] [days]	Growth Delay [1, 8] [days]	Days to 600 mm^3 Median [1, 9] [days]	Growth Delay [1, 10] [days]	Toxicity: number of animals who either died or lost greater than 20% body weight [1, 10]	Tumor free mice/Group [1, 8]	Tumor free mice/Group [1, 10]	Days to 600 mm^3 Median [1, 11] [days]	Growth Delay [1, 12] [days]	Toxicity: number of animals who either died or lost greater than 20% body weight [1, 12]	Tumor free mice/Group [1, 12]	antitumor effect (in words) [2]	also measured
CC/C=C\C/C=C\C/C=C\C/C=C\C/C=C\C/C=C/CCC(=O)O[C@@H](C(=O)O[C@H]1C[C@@]2(O)[C@@H](OC(=O)c3ccccc3)C3[C@]4(OC(C)=O)COC4C[C@H](O)[C@@]3(C)C(=O)[C@H](O)C(=C1C)C2(C)C)[C@@H](NC(=O)OC(C)(C)C)c1ccccc1 (stereo partly shown) [DHA-Docetaxel, reference compound]	31	17	48	34	0	0/4	0/4	–	–	–	–	–	Toxicity: number of animals who either died or lost greater than 20% body weight [1, 8]: 0
CC/C=C\C/C=C\C/C=C\C/C=C\C/C=C\C/C=C\CCC(=O)O[C@@H](C(=O)O[C@@H]1C(C)=C2[C@@H](OC(C)=O)C(=O)[C@@]3(C)[C@H]([C@H](OC(=O)c4ccccc4)[C@@]4(OC(=O)O[C@@H]14)C2(C)C)[C@]1(OC(C)=O)CO[C@@H]1C[C@@H]3O)[C@H](CC(C)C)NC(=O)OC(C)(C)C [DHA-IDN-5109, 2′-Docosahexaenoyl-3′-dephenyl-3′-(2-methylpropyl)-10-acetyldocetaxel-1,14-carbonate]	–	–	14	0	0	–	0/5	–	–	–	–	–	–
CC/C=C\C/C=C\C/C=C\C/C=C\C/C=C\C/C=C/CCC(=O)O[C@@H](C(=O)O[C@H]1C[C@@]2(O)[C@@H](OC(=O)c3ccccc3)C3[C@](C)(C(=O)[C@H](OC(C)=O)C(=C1C)C2(C)C)[C@@H](O)C[C@H]1OC[C@@]31OC(C)=O)[C@@H](NC(=O)c1ccccc1)c1ccccc1 (stereo partly shown) [DHA-Paclitaxel, reference compound]	–	–	–	–	–	–	–	18	4	0	0/5	–	Tumor free mice/Group [2, 12]: 2/5; Days to 600 mm^3 Median [2, 12]: 197 days; Growth Delay [2, 12]: 186 days; Toxicity: number of animals who either died or lost greater than 20% body weight [2, 12]: 0; duration of sustained regression ([3]; optimum dose of 120 mg/kg, all mice): sixty; regression of lung tumor xenografts ([3]; optimum dose of 120 mg/kg, mice): complete regression; lower clearance rate than paclitaxel ([4]; mice): 94 fold; stability in plasma ([4]; plasma): stable in plasma
CC/C=C\C/C=C\C/C=C\C/C=C\C/C=C\C/C=C/CCC(=O)O[C@@H](C(=O)O[C@H]1C[C@@]2(O)[C@@H](OC(=O)c3ccccc3)C3[C@](C)(C(=O)[C@H](OC(=O)CC)C(=C1C)C2(C)C)[C@@H](O)C[C@H]1OC[C@@]31OC(C)=O)[C@H](CC(C)C)NC(=O)OC(C)(C)C (stereo partly shown) [DHA-SB-T-1103, 2′-Docosahexaenoyl-3′-dephenyl-3′-(2-methylpropyl)-10-propanoyldocetaxel]	18	4	–	–	–	0/5	–	–	–	–	–	–	–
CC/C=C\C/C=C\C/C=C\C/C=C\C/C=C\C/C=C/CCC(=O)O[C@@H](C(=O)O[C@H]1C[C@@]2(O)[C@@H](OC(=O)c3ccccc3)C3[C@](C)(C(=O)[C@H](OC(=O)C4CC4)C(=C1C)C2(C)C)[C@@H](O)C[C@H]1OC[C@@]31OC(C)=O)[C@H](CC(C)C)NC(=O)OC(C)(C)C (stereo partly shown) [DHA-SB-T-1104, 2′-Docosahexaenoyl-3′-dephenyl-3′-(2-methyl-1-propyl)-10-cyclopropanecarbonyldocetaxel]	–	–	–	–	–	–	–	18	4	0	0/5	effective tumor growth delay	Tumor free mice/Group [2, 12]: 0/5; Days to 600 mm^3 Median [2, 12]: 126 days; Growth Delay [2, 12]: 115 days; Toxicity: number of animals who either died or lost greater than 20% body weight [2, 12]: 0
CC/C=C\C/C=C\C/C=C\C/C=C\C/C=C\C/C=C/CCC(=O)O[C@@H](C(=O)O[C@H]1C[C@@]2(O)[C@@H](OC(=O)c3ccccc3)C3[C@](C)(C(=O)[C@H](OC(=O)CC)C(=C1C)C2(C)C)[C@@H](O)C[C@H]1OC[C@@]31OC(C)=O)[C@H](C=C(C)C)NC(=O)OC(C)(C)C (stereo partly shown) [DHA-SB-T-1213, 2′-Docosahexaenoyl-3′-dephenyl-3′-(2-methyl-1-propenyl)-10-propanoyldocetaxel]	68	54	–	–	–	0/5	–	–	–	–	–	excellent results	Tumor free mice/Group [2, 13]: 4/5; Days to 600 mm^3 Median [2, 13]: >197 days; Growth Delay [2, 13]: >186 days
CC/C=C\C/C=C\C/C=C\C/C=C\C/C=C\C/C=C\CCC(=O)O[C@@H](C(=O)O[C@H]1C[C@@]2(O)[C@@H](OC(=O)c3ccccc3)[C@@H]3[C@]4(OC(C)=O)CO[C@@H]4C[C@H](O)[C@@]3(C)C(=O)[C@H](OC(=O)C3CC3)C(=C1C)C2(C)C)[C@H](C=C(C)C)NC(=O)OC(C)(C)C [DHA-SB-T-1214, 2′-Docosahexaenoyl-3′-dephenyl-3′-(2-methyl-1-propenyl)-10-cyclopropanecarbonyldocetaxel]	–	–	–	–	–	–	–	>201	>187	0	5/5	–	survival of mice ([1]; day 201, DLD-1, SCID mice): all mice were alive on day 201; tumor detected in treated mice ([1]; day 201, DLD-1, SCID mice): no trace of tumor was detected; antitumor effect (in words) ([1]; drug-resistant human colon tumor xenografts in SCID mice): remarkable antitumor effect
CC/C=C\C/C=C\C/C=C\C/C=C\C/C=C\C/C=C/CCC(=O)O[C@@H](C(=O)O[C@H]1C[C@@]2(O)[C@@H](OC(=O)c3ccccc3)C3[C@](C)(C(=O)[C@H](OC(=O)N(C)C)C(=C1C)C2(C)C)[C@@H](O)C[C@H]1OC[C@@]31OC(C)=O)[C@H](C=C(C)C)NC(=O)OC(C)(C)C (stereo partly shown) [DHA-SB-T-1216]	–	–	–	–	–	–	–	–	–	–	–	effective tumor growth delay	Tumor free mice/Group [2, 13]: 1/5; Days to 600 mm^3 Median [2, 13]: >197 days; Growth Delay [2, 13]: >186 days; Toxicity: number of animals who either died or lost greater than 20% body weight [2, 13]: 4
CC(=O)O[C@H]1C(=O)[C@@]2(C)[C@H]([C@H](OC(=O)c3ccccc3)[C@]34OC(=O)O[C@H]3[C@H](OC(=O)[C@H](O)[C@H](CC(C)C)NC(=O)OC(C)(C)C)C(C)=C1C4(C)C)[C@]1(OC(C)=O)CO[C@@H]1C[C@@H]2O [IDN-5109, ortataxel, reference compound]	–	–	46	32	0	–	0/3	–	–	–	–	–	activity against xenografts (in words) [5]: impressive activity
CC(=O)O[C@H]1C(=O)[C@@]2(C)[C@H]([C@H](OC(=O)c3ccccc3)[C@]3(O)C[C@H](OC(=O)[C@H](O)[C@@H](NC(=O)c4ccccc4)c4ccccc4)C(C)=C1C3(C)C)[C@]1(OC(C)=O)CO[C@@H]1C[C@@H]2O [Paclitaxel, reference compound]	–	–	–	–	–	–	–	–	–	–	–	–	Days to 600 mm^3 Median ([1]; total dose 60 mg/kg (20 mg/kg/inj) i.v. day 5, 8 and 11): 22 days; Growth Delay [1, 14]: 8 days; Toxicity: number of animals who either died or lost greater than 20% body weight [1, 14]: 0; Tumor free mice/Group [1, 14]: 0/3; Tumor free mice/Group [2, 14]: 0/5; Days to 600 mm^3 Median [2, 14]: 94 days; Growth Delay [2, 14]: 83 days; Toxicity: number of animals who either died or lost greater than 20% body weight [2, 14]: 0; regression of the tumors ([3]; optimum dose of 20 mg/kg, mice): neither complete nor partial regression; IC50 [6]: 300 to 800 nM

Source: patent US7820839B2, “Taxoid-fatty acid conjugates and pharmaceutical compositions thereof” (The Research Foundation of State University of New York, priority 2003, dated 2010)
